Legend:
Experiment in all cases: relative viability (nuclei count vs DMSO), 5 days (fraction); higher = more cells survive
[1] = compound: CCN1C(=O)C2=CC(=C(N=C2N(C1=O)C3CC3)N)C(=O)N
Outline: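 Five library-drug doses spaced by √10 were pinned onto vehicle-anchored 1536-well plates of lung cancer cell lines that had been kept overnight at 37 °C. Cells went 5 days without medium change, then were fixed, permeabilised and Hoechst-stained together, imaged at 4× and counted by MetaXpress. Viability is the ratio of treated-well to vehicle-well nuclei, taken as a median over plates. Plates required control CV below 25% and at least one doubling.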

[2] = compound: CCN1C(=O)C2=CC(=C(N=C2N(C1=O)C3CC3)N)C(=O)N + CC(C)C[C@H](NC(=O)[C@H](Cc1ccccc1)NC(=O)c1cnccn1)B(O)O [Bortezomib] (partner 0.002 µM)
Outline: (§1)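 Lung cancer cell lines were seeded in 1536-well plates and dosed by pin tool the next day, with either a single drug or a fixed anchor-drug dose combined with five library-drug doses (not always all listed) spaced in √10 steps. Five days later, one step fixed the cells and stained their nuclei (final 0.05% Triton X-100, 1% formaldehyde, 1 ug/ml Hoechst), and nuclei were counted on 4× images. Relative viability is the nuclei count in treated wells divided by the count in vehicle wells, and each value is the median of duplicate plates.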

[3] = compound: CCN1C(=O)C2=CC(=C(N=C2N(C1=O)C3CC3)N)C(=O)N + CS(=O)(=O)N1CCN(Cc2cc3nc(-c4cccc5[nH]ncc45)nc(N4CCOCC4)c3s2)CC1 [Pictilisib] (partner 1 µM)
Outline: as §1

[4] = compound: CCN1C(=O)C2=CC(=C(N=C2N(C1=O)C3CC3)N)C(=O)N + CC1(C)CCC(c2ccc(Cl)cc2)=C(CN2CCN(c3ccc(C(=O)NS(=O)(=O)c4ccc(N[C@H](CCN5CCOCC5)CSc5ccccc5)c(S(=O)(=O)C(F)(F)F)c4)cc3)CC2)C1 [Navitoclax] (partner 0.5 µM)
Outline: as §1

[5] = compound: CCN1C(=O)C2=CC(=C(N=C2N(C1=O)C3CC3)N)C(=O)N + COc1cc2c(Oc3ccc(NC(=O)C4(C(=O)Nc5ccc(F)cc5)CC4)cc3F)ccnc2cc1OCCCN1CCOCC1 [Foretinib] (partner 0.25 µM)
Outline: as §1

[6] = compound: CCN1C(=O)C2=CC(=C(N=C2N(C1=O)C3CC3)N)C(=O)N + O=C(c1cc(Cc2n[nH]c(=O)c3ccccc23)ccc1F)N1CCN(C(=O)C2CC2)CC1 [Olaparib] (partner 8 µM)
Outline: as §1

[7] = compound: CCN1C(=O)C2=CC(=C(N=C2N(C1=O)C3CC3)N)C(=O)N + CS(=O)(=O)CCNCc1ccc(-c2ccc3ncnc(Nc4ccc(OCc5cccc(F)c5)c(Cl)c4)c3c2)o1 [Lapatinib] (partner 2 µM)
Outline: as §1

[8] = compound: CCN1C(=O)C2=CC(=C(N=C2N(C1=O)C3CC3)N)C(=O)N + C[C@@H](Oc1cc(-c2cnn(C3CCNCC3)c2)cnc1N)c1c(Cl)ccc(F)c1Cl [Crizotinib] (partner 1 µM)
Outline: as §1

[9] = compound: CCN1C(=O)C2=CC(=C(N=C2N(C1=O)C3CC3)N)C(=O)N + C[C@]1(O)C[C@@H](c2nc(-c3ccc4ccc(-c5ccccc5)nc4c3)c3c(N)nccn32)C1 [Linsitinib] (partner 1 µM)
Outline: as §1

[10] = compound: CCN1C(=O)C2=CC(=C(N=C2N(C1=O)C3CC3)N)C(=O)N + Cc1nc(NC(=O)N2CCC[C@H]2C(N)=O)sc1-c1ccnc(C(C)(C)C(F)(F)F)c1 [Alpelisib] (partner 2 µM)
Outline: as §1

## EBC-1
[1]; 0.253 µM
  relative viability: 0.932
[1]; 0.8 µM
  relative viability: 1.02
[1]; 2.53 µM
  relative viability: 0.979
[1]; 8 µM
  relative viability: 1.03
[2]; first compound 0.253 µM
  relative viability: 0.496
[2]; first compound 0.8 µM
  relative viability: 0.5
[2]; first compound 2.53 µM
  relative viability: 0.489
[2]; first compound 8 µM
  relative viability: 0.61
[3]; first compound 0.253 µM
  relative viability: 0.35
[3]; first compound 0.8 µM
  relative viability: 0.352
[3]; first compound 2.53 µM
  relative viability: 0.335
[3]; first compound 8 µM
  relative viability: 0.494
[4]; first compound 0.253 µM
  relative viability: 0.441
[4]; first compound 0.8 µM
  relative viability: 0.43
[4]; first compound 2.53 µM
  relative viability: 0.451
[4]; first compound 8 µM
  relative viability: 0.378
[5]; first compound 0.253 µM
  relative viability: 0.105
[5]; first compound 0.8 µM
  relative viability: 0.114
[5]; first compound 2.53 µM
  relative viability: 0.104
[5]; first compound 8 µM
  relative viability: 0.119
[6]; first compound 0.253 µM
  relative viability: 0.7
[6]; first compound 0.8 µM
  relative viability: 0.695
[6]; first compound 2.53 µM
  relative viability: 0.618
[6]; first compound 8 µM
  relative viability: 0.777
[7]; first compound 0.253 µM
  relative viability: 0.186
[7]; first compound 0.8 µM
  relative viability: 0.204
[7]; first compound 2.53 µM
  relative viability: 0.206
[7]; first compound 8 µM
  relative viability: 0.211
[8]; first compound 0.253 µM
  relative viability: 0.163
[8]; first compound 0.8 µM
  relative viability: 0.184
[8]; first compound 2.53 µM
  relative viability: 0.208
[8]; first compound 8 µM
  relative viability: 0.218
[9]; first compound 0.253 µM
  relative viability: 0.851
[9]; first compound 0.8 µM
  relative viability: 0.938
[9]; first compound 2.53 µM
  relative viability: 0.808
[9]; first compound 8 µM
  relative viability: 0.886
[10]; first compound 0.253 µM
  relative viability: 0.84
[10]; first compound 0.8 µM
  relative viability: 0.77
[10]; first compound 2.53 µM
  relative viability: 0.78
[10]; first compound 8 µM
  relative viability: 0.834
